According to US10889555B2, “Sulfonamide compound or salt thereof” (Taiho Pharmaceutical Co., Ltd., priority 2016, dated 2021):

System: HCC 1806 cells
Test: Cell proliferation inhibitory effect on human breast cancer cell line (crystal violet, 72 hours)
Type: cell-based
Conditions: Homo sapiens, HCC1806, 72 h, read-out: Cell growth suppression IC50
Description: Human derived breast cancer cell line HCC 1806 cells were daily passaged at a cell density not exceeding 80% in ATCC recommended Roswell Park Memorial Institute medium (RPMI-1640) containing 10% fetal bovine serum (FBS). In order to start the test of cell proliferation inhibitory activity, HCC 1806 cells were suspended in the above medium, after seeing at 180 μL in each well of a 96-well flat bottom plate so that the number of cells per well was 2,000, the cells were cultured at 37° C. for 1 day in an incubator containing 5% carbon dioxide gas. On the next day, the test compound was dissolved in DMSO, and 20 μL of a drug additive solution diluted serially with distilled water to 10 times of the final concentration was added to each well of the culture plate of the cells, and the cells were cultured at 37° C. for 72 hours in an incubator containing 5% carbon dioxide gas. After culturing for 72 hours, 20 μL of glutaraldehyde was added to each well and allowed to stand for 30 minutes, then the plate was washed 10 times with water and was dried. 100 μL of a stain solution (0.05% crystal violet in a 20% methanol solution) was added to each well and allowed to stand for 30 minutes, then the plate was washed 10 times with water and was dried. 100 μL of an extract solution (0.1 N NaH2PO4: 100% ethanol=1:1) was added to each well and mixed, and the mixture was measured at a wavelength of 540 nm using a plate reader (MTP-450 manufactured by Corona Electric Co., Ltd.). The growth inhibition rate was calculated from the following formula, and the concentration (IC50 (μM)) of a test compound inhibiting 50% was determined. Growth inhibition rate (%)={(C−B)−(T−B)}/(C−B)×100
T: Absorbance of well to which test compound was added
C: Absorbance of wells to which no test compound was added
B: Absorbance of wells to which no cell suspension was added

IC50 [nM]	Structure (SMILES)
580	Cc1ccc(F)c([C@@H](C)[C@H](NS(=O)(=O)c2c(F)cc(Cl)cc2C(N)=O)c2n[nH]c(=O)o2)c1C [Example 258, 5-chloro-3-fluoro-2-(N-((1S,2R)-2-(6-fluoro-2,3-dimethylphenyl)-1-(5-oxo-4,5-dihydro-1,3,4-oxadiazol-2-yl)propyl)sulfamoyl)benzamide]
150	Cc1ccc(F)c([C@@H](C)[C@H](NS(=O)(=O)c2ccc(Cl)c3c2OCCN3C)c2n[nH]c(=O)o2)c1C [Example 288, 5-chloro-N-((1S,2R)-2-(6-fluoro-2,3-dimethylphenyl)-1-(5-oxo-4,5-dihydro-1,3,4-oxadiazol-2-yl)propyl)-4-methyl-3,4-dihydro-2H-benzo[b][1,4]oxazine-8-sulfonamide]
120	Cc1ccc(F)c([C@@H](C)[C@H](NS(=O)(=O)c2ncc(Br)cc2C(N)=O)c2n[nH]c(=O)o2)c1C [Example 250, 5-bromo-2-(N-((1S,2R)-2-(6-fluoro-2,3-dimethylphenyl)-1-(5-oxo-4,5-dihydro-1,3,4-oxadiazol-2-yl)propyl)sulfamoyl)nicotinamide]
350	CCn1cc(-c2ccc(F)c([C@@H](C)[C@H](NS(=O)(=O)c3ccc(Cl)cc3OC)c3n[nH]c(=O)o3)c2C)cn1 [Example 310, 4-chloro-N-((1S,2R)-2-(3-(1-ethyl-1H-pyrazol-4-yl)-6-fluoro-2-methylphenyl)-1-(5-oxo-4,5-dihydro-1,3,4-oxadiazol-2-yl)propyl)-2-methoxybenzenesulfonamide]
230	Cc1ccc(F)c([C@@H](C)[C@H](NS(=O)(=O)c2ccc(Cl)c(C(=O)N(C)C)n2)c2n[nH]c(=O)o2)c1C [Example 253, 3-chloro-6-(N-((1S,2R)-2-(6-fluoro-2,3-dimethylphenyl)-1-(5-oxo-4,5-dihydro-1,3,4-oxadiazol-2-yl)propyl)sulfamoyl)-N,N-dimethylpicolinamide]
760	Cc1c(Br)ccc(F)c1[C@@H](C)[C@H](NS(=O)(=O)c1ncc(Cl)cc1C(N)=O)c1n[nH]c(=O)o1 [Example 264, 2-(N-((1S,2R)-2-(3-bromo-6-fluoro-2-methylphenyl)-1-(5-oxo-4,5-dihydro-1,3,4-oxadiazol-2-yl)propyl)sulfamoyl)-5-chloronicotinamide]
480	Cc1ccc(F)c([C@@H](C)[C@H](NS(=O)(=O)c2cc(F)c(Cl)cc2C(N)=O)c2n[nH]c(=O)o2)c1C [Example 255, 5-chloro-4-fluoro-2-(N-((1S,2R)-2-(6-fluoro-2,3-dimethylphenyl)-1-(5-oxo-4,5-dihydro-1,3,4-oxadiazol-2-yl)propyl)sulfamoyl)benzamide]
770	Cc1ccc(F)c([C@@H](C)[C@H](NS(=O)(=O)c2ccc(F)c3c2OCCC3(C)O)c2n[nH]c(=O)o2)c1C (single isomer, unassigned) [Example 224B]
370	Cc1ccc(F)c([C@@H](C)[C@H](NS(=O)(=O)c2ccc(Cl)c3c2OCCN3)c2n[nH]c(=O)o2)c1C [Example 275, 5-chloro-N-((1S,2R)-2-(6-fluoro-2,3-dimethylphenyl)-1-(5-oxo-4,5-dihydro-1,3,4-oxadiazol-2-yl)propyl)-3,4-dihydro-2H-benzo[b][1,4]oxazine-8-sulfonamide]
100	Cc1ccc(F)c([C@@H](C)[C@H](NS(=O)(=O)c2ccc(F)c3c2OCCC3(C)O)c2n[nH]c(=O)o2)c1C (single isomer, unassigned) [Example 224A]

More lines, now with the values behind:

Structure (SMILES)	IC50 [nM]
CCc1ccc(S(=O)(=O)N[C@H](c2n[nH]c(=O)o2)[C@H](C)c2c(F)ccc(C)c2C)c(C(N)=O)c1 [Example 18, 5-Ethyl-2-(N-((1S,2R)-2-(6-fluoro-2,3-dimethylphenyl)-1-(5-oxo-4,5-dihydro-1,3,4-oxadiazol-2-yl)propyl)sulfamoyl)benzamide]	580
COc1cc(Cl)ccc1S(=O)(=O)N[C@H](c1n[nH]c(=O)o1)[C@H](C)c1cccc2cccc(C)c12 [Example 71, 4-chloro-2-methoxy-N-((1S,2R)-2-(8-methylnaphthalen-1-yl)-1-(5-oxo-4,5-dihydro-1,3,4-oxadiazol-2-yl)propyl)benzenesulfonamide]	790
Cc1ccc(F)c([C@@H](C)[C@H](NS(=O)(=O)c2ccc(Cl)nc2C(N)=O)c2n[nH]c(=O)o2)c1C [Example 19, 6-Chloro-3-(N-((1S,2R)-2-(6-fluoro-2,3-dimethylphenyl)-1-(5-oxo-4,5-dihydro-1,3,4-oxadiazol-2-yl)propyl)sulfamoyl)picolinamide]	940
Cc1ccc(F)c([C@@H](C)[C@H](NS(=O)(=O)c2cc(C(C)(C)O)c(Cl)cc2C(N)=O)c2n[nH]c(=O)o2)c1C [Example 198, 5-chloro-2-(N-((1S,2R)-2-(6-fluoro-2,3-dimethylphenyl)-1-(5-oxo-4,5-dihydro-1,3,4-oxadiazol-2-yl)propyl)sulfamoyl)-4-(2-hydroxypropan-2-yl)benzamide]	50
Cc1ccc(F)c([C@@H](C)[C@H](NS(=O)(=O)c2ccc(Cl)c(C(=O)N3CC4CCC(C3)O4)n2)c2n[nH]c(=O)o2)c1C [Example 117, 6-(8-oxa-3-azabicyclo[3.2.1]octane-3-carbonyl)-5-chloro-N-((1S,2R)-2-(6-fluoro-2,3-dimethylphenyl)-1-(5-oxo-4,5 dihydro-1,3,4-oxadiazol-2-yl)propyl)pyridine-2-sulfonamide]	310
COc1c(S(=O)(=O)N[C@H](c2n[nH]c(=O)o2)[C@H](C)c2cccc(C)c2C)ccc(Cl)c1C(C)O (stereo partly drawn) [Example 203, 4-chloro-N-((1S,2R)-2-(2,3-dimethylphenyl)-1-(5-oxo-4,5-dihydro-1,3,4-oxadiazol-2-yl)propyl)-3-(1-hydroxyethyl)-2-methoxybenzenesulfonamide]	810
CC(=O)OC1(C)CCOc2c(S(=O)(=O)N[C@H](c3n[nH]c(=O)o3)[C@H](C)c3c(F)ccc(Br)c3C)ccc(Cl)c21 (stereo partly drawn) [Example 167, 8-(N-((1S,2R)-2-(3-bromo-6-fluoro-2-methylphenyl)-1-(5-oxo-4,5-dihydro-1,3,4-oxadiazol-2-yl)propyl)sulfamoyl)-5-chloro-4-methylchroman-4-yl-acetate]	140
Cc1ccc(F)c([C@@H](C)[C@H](NS(=O)(=O)c2ccc(Cl)cc2-c2ccno2)c2n[nH]c(=O)o2)c1C [Example 91, 4-chloro-N-((1S,2R)-2-(6-fluoro-2,3-dimethylphenyl)-1-(5-oxo-4,5-dihydro-1,3,4-oxadiazol-2-yl)propyl)-2-(isoxazol-5-yl)benzenesulfonamide]	980
Cc1ccc(F)c([C@@H](C)[C@H](NS(=O)(=O)c2ccc(Cl)c3c2OCC(=O)N3CC(F)F)c2n[nH]c(=O)o2)c1C [Example 101, 5-chloro-4-(2,2-difluoroethyl)-N-((1S,2R)-2-(6-fluoro-2,3-dimethylphenyl)-1-(5-oxo-4,5-dihydro-1,3,4-oxadiazol-2-yl)propyl)-3-oxo-3,4-dihydro-2H-benzo[b][1,4]oxazine-8-sulfonamide]	810
COc1cc(Cl)ccc1S(=O)(=O)N[C@H](c1n[nH]c(=O)o1)[C@H](C)c1c(F)ccc2ccccc12 [Example 76, 4-chloro-N-((1S,2R)-2-(2-fluoronaphthalen-1-yl)-1-(5-oxo-4,5-dihydro-1,3,4-oxadiazol-2-yl)propyl)-2-methoxybenzenesulfonamide]	440
CC(=O)OC1(C(F)(F)F)CCOc2c1cccc2S(=O)(=O)N[C@H](c1n[nH]c(=O)o1)[C@H](C)c1c(F)ccc(C)c1C (stereo partly drawn) [Example 106, 8-(N-((1S,2R)-2-(6-fluoro-2,3-dimethylphenyl)-1-(5-oxo-4,5-dihydro-1,3,4-oxadiazol-2-yl)propyl)sulfamoyl)-4-(tifluoromethyl)chroman-4-yl acetate]	380
COc1c(S(=O)(=O)N[C@H](c2n[nH]c(=O)o2)[C@H](C)c2c(F)ccc(C)c2C)ccc(Cl)c1C(C)O (stereo partly drawn) [Example 204, 4-chloro-N-((1S,2R)-2-(6-fluoro-2,3-dimethylphenyl)-1-(5-oxo-4,5-dihydro-1,3,4-oxadiazol-2-yl)propyl)-3-(1-hydroxyethyl)-2-methoxybenzenesulfonamide]	150
COc1nc(Cl)ccc1S(=O)(=O)N[C@H](c1n[nH]c(=O)o1)[C@H](C)c1c(F)ccc(C)c1C [Example 148]	400
Cc1c(Br)ccc(F)c1[C@@H](C)[C@H](NS(=O)(=O)c1ccc(Br)cc1C(N)=O)c1n[nH]c(=O)o1 [Example 35, 5-bromo-2-(N-((1S,2R)-2-(3-bromo-6-fluoro-2-methylphenyl)-1-(5-oxo-4,5-dihydro-1,3,4-oxadiazol-2-yl)propyl)sulfamoyl)benzamide]	670

Same assay, conditions: read-out: Cell growth suppression IC50

IC50 [nM]	Structure (SMILES)
330	COc1c(S(=O)(=O)N[C@H](c2n[nH]c(=O)o2)[C@H](C)c2c(F)ccc(C)c2C)ccc(Cl)c1C(C)O (single isomer, unassigned) [Example 208A]
80	[2H]C([2H])([2H])C1(O)CCOc2c(S(=O)(=O)N[C@H](c3n[nH]c(=O)o3)[C@H](C)c3c(F)ccc(Br)c3C)ccc(Cl)c21 (single isomer, unassigned) [Example 226A]
